These compounds were tested on Edwardsiella ictaluri (assay: Antibacterial activity against Edwardsiella ictaluri after 24 hrs). Details: not given.
Assay type: functional
`CC(=O)O[C@H]1[C@H]2c3cc4c(cc3CN3CCC(=C[C@@H]1O)[C@H]23)OCO4` was tested, and the MIC was over 33 µg/mL. With `CC(=O)O[C@H]1[C@H]2c3cc4c(cc3CN3CCC(=C[C@@H]1OC(C)=O)[C@H]23)OCO4` the MIC was over 37 µg/mL. In the case of `O=C1C=C2CCN3Cc4cc5c(cc4[C@H]([C@@H]1O)[C@@H]23)OCO5`, the MIC is reported as over 26 µg/mL. `CC(=O)O[C@H]1[C@H]2c3cc4c(cc3CN3CC[C@H](C[C@@H]1OC(C)=O)[C@H]23)OCO4` gave an MIC of over 37 µg/mL.

These compounds were tested on Flavobacterium columnare (assay: Antibacterial activity against Flavobacterium columnare ALM-00-173 after 24 hrs). Details: ALM-00-173, 24 h.
Assay type: functional
`CC(=O)O[C@H]1[C@H]2c3cc4c(cc3CN3CCC(=C[C@@H]1OC(C)=O)[C@H]23)OCO4.Cl` was tested, and the MIC was 40.7 µg/mL. Work on `C[N+]12CCC3=C[C@H](OC(=O)c4ccccc4Cl)[C@@H](OC(=O)c4ccccc4Cl)[C@@H](c4cc5c(cc4C1)OCO5)[C@@H]32.[I-]` (stereo not given in full) yielded an MIC of over 70 µg/mL. `Cc1ccccc1C(=O)O[C@H]1[C@H]2c3cc4c(cc3CN3CCC(=C[C@@H]1OC(=O)c1ccccc1C)[C@H]23)OCO4` gave an MIC of 4.1 µg/mL. `Cc1ccccc1C(=O)O[C@H]1C=C2CCN3Cc4cc5c(cc4[C@H]([C@@H]1O)[C@@H]23)OCO5` gave an MIC of 46.4 µg/mL. For `[O-]c1ccc2c3c1c1cc4c(cc1c[n+]3CC2)OCO4`, the MIC was 10 µM. Compound `O=C(O[C@H]1C=C2CCN3Cc4cc5c(cc4[C@H]([C@@H]1OC(=O)c1ccccc1Cl)[C@@H]23)OCO5)c1cccc(Cl)c1` has an MIC of 31 µg/mL. `Cc1ccc(C(=O)O[C@H]2[C@H]3c4cc5c(cc4CN4CCC(=C[C@@H]2OC(=O)c2ccc(C)cc2)[C@H]34)OCO5)cc1` showed an MIC of 46.4 µg/mL. For `O=C(O[C@H]1C=C2CCN3Cc4cc5c(cc4[C@H]([C@@H]1O)[C@@H]23)OCO5)c1ccc(Cl)cc1`, the MIC was 42.6 µg/mL. For `Cc1ccccc1NC(=O)O[C@H]1C=C2CCN3Cc4cc5c(cc4[C@H]([C@@H]1O)[C@@H]23)OCO5`, the MIC was 23.2 µg/mL. `O=C(O[C@H]1[C@H]2c3cc4c(cc3CN3CCC(=C[C@@H]1OC(=O)c1cccc(Cl)c1)[C@H]23)OCO4)c1cccc(Cl)c1` showed an MIC of 5.6 µg/mL. `Cc1ccc(C(=O)O[C@H]2[C@H]3c4cc5c(cc4CN4CCC(=C[C@@H]2OC(=O)c2ccc(C)cc2C)[C@H]34)OCO5)c(C)c1` gave an MIC of 5.5 µg/mL. `Cc1cccc(C(=O)O[C@H]2[C@H]3c4cc5c(cc4CN4CCC(=C[C@@H]2OC(=O)c2cccc(C)c2)[C@H]34)OCO5)c1` gave an MIC of 5.2 µg/mL. Compound `O=C(O[C@H]1[C@H]2c3cc4c(cc3CN3CCC(=C[C@@H]1OC(=O)c1ccc(Cl)cc1)[C@H]23)OCO4)c1ccc(Cl)cc1` has an MIC of 31 µg/mL. Compound `Cc1ccccc1NC(=O)O[C@H]1[C@H]2c3cc4c(cc3CN3CCC(=C[C@@H]1OC(=O)Nc1ccccc1C)[C@H]23)OCO4` has an MIC of 5.5 µg/mL. `COc1cc2c[n+]3c4c(cc([O-])cc4c2cc1O)CC3` was tested, and the MIC was 100 µM. With `Cc1ccc(C(=O)O[C@H]2C=C3CCN4Cc5cc6c(cc5[C@H]([C@@H]2O)[C@@H]34)OCO6)cc1` the MIC was 4.7 µg/mL. With `Cc1cccc(C(=O)O[C@H]2[C@H]3c4cc5c(cc4CN4CCC(=C[C@@H]2OC(=O)c2cccc(C)c2C)[C@H]34)OCO5)c1C` the MIC was 30.4 µg/mL. Compound `CC(=O)O[C@H]1[C@H]2c3cc4c(cc3CN3CCC(=C[C@@H]1OC(C)=O)[C@H]23)OCO4` has an MIC of 4 µg/mL. `CC(=O)O[C@H]1C=C2CCN3Cc4cc5c(cc4[C@H]([C@@H]1O)[C@@H]23)OCO5` showed an MIC of 16.6 µg/mL. `O=C1C=C2CCN3Cc4cc5c(cc4[C@H]([C@@H]1O)[C@@H]23)OCO5` was tested, and the MIC was over 26 µg/mL. With `CC(=O)O[C@H]1[C@H]2c3cc4c(cc3CN3CC[C@H](C[C@@H]1OC(C)=O)[C@H]23)OCO4` the MIC was over 37 µg/mL.

What follows are compounds tested on Flavobacterium columnare (assay: Antibacterial activity against Flavobacterium columnare BioMed after 24 hrs). Details: not given.
Assay type: functional
Work on `CC(=O)O[C@H]1[C@H]2c3cc4c(cc3CN3CCC(=C[C@@H]1OC(C)=O)[C@H]23)OCO4.Cl` yielded an MIC of 40.7 µg/mL. For `C[N+]12CCC3=C[C@H](OC(=O)c4ccccc4Cl)[C@@H](OC(=O)c4ccccc4Cl)[C@@H](c4cc5c(cc4C1)OCO5)[C@@H]32.[I-]` (stereo not given in full), the MIC was over 70 µg/mL. For `Cc1ccccc1C(=O)O[C@H]1[C@H]2c3cc4c(cc3CN3CCC(=C[C@@H]1OC(=O)c1ccccc1C)[C@H]23)OCO4`, the MIC was 4.1 µg/mL. `Cc1ccccc1C(=O)O[C@H]1C=C2CCN3Cc4cc5c(cc4[C@H]([C@@H]1O)[C@@H]23)OCO5` showed an MIC of 22.9 µg/mL. With `[O-]c1ccc2c3c1c1cc4c(cc1c[n+]3CC2)OCO4` the MIC was 100 µM. `O=C(O[C@H]1C=C2CCN3Cc4cc5c(cc4[C@H]([C@@H]1OC(=O)c1ccccc1Cl)[C@@H]23)OCO5)c1cccc(Cl)c1` was tested, and the MIC was 5.6 µg/mL. In the case of `Cc1ccc(C(=O)O[C@H]2[C@H]3c4cc5c(cc4CN4CCC(=C[C@@H]2OC(=O)c2ccc(C)cc2)[C@H]34)OCO5)cc1`, the MIC is reported as 22.9 µg/mL. `O=C(O[C@H]1C=C2CCN3Cc4cc5c(cc4[C@H]([C@@H]1O)[C@@H]23)OCO5)c1ccc(Cl)cc1` gave an MIC of 42.6 µg/mL. Work on `Cc1ccccc1NC(=O)O[C@H]1C=C2CCN3Cc4cc5c(cc4[C@H]([C@@H]1O)[C@@H]23)OCO5` yielded an MIC of 42.1 µg/mL. `O=C(O[C@H]1[C@H]2c3cc4c(cc3CN3CCC(=C[C@@H]1OC(=O)c1cccc(Cl)c1)[C@H]23)OCO4)c1cccc(Cl)c1` gave an MIC of 5.6 µg/mL. Work on `Cc1ccc(C(=O)O[C@H]2[C@H]3c4cc5c(cc4CN4CCC(=C[C@@H]2OC(=O)c2ccc(C)cc2C)[C@H]34)OCO5)c(C)c1` yielded an MIC of 30.4 µg/mL. With `Cc1cccc(C(=O)O[C@H]2[C@H]3c4cc5c(cc4CN4CCC(=C[C@@H]2OC(=O)c2cccc(C)c2)[C@H]34)OCO5)c1` the MIC was 28.8 µg/mL. In the case of `O=C(O[C@H]1[C@H]2c3cc4c(cc3CN3CCC(=C[C@@H]1OC(=O)c1ccc(Cl)cc1)[C@H]23)OCO4)c1ccc(Cl)cc1`, the MIC is reported as 5.6 µg/mL. Compound `Cc1ccccc1NC(=O)O[C@H]1[C@H]2c3cc4c(cc3CN3CCC(=C[C@@H]1OC(=O)Nc1ccccc1C)[C@H]23)OCO4` has an MIC of 5.5 µg/mL. Work on `COc1cc2c[n+]3c4c(cc([O-])cc4c2cc1O)CC3` yielded an MIC of 10 µM. `Cc1ccc(C(=O)O[C@H]2C=C3CCN4Cc5cc6c(cc5[C@H]([C@@H]2O)[C@@H]34)OCO6)cc1` gave an MIC of 22.9 µg/mL. Compound `Cc1cccc(C(=O)O[C@H]2[C@H]3c4cc5c(cc4CN4CCC(=C[C@@H]2OC(=O)c2cccc(C)c2C)[C@H]34)OCO5)c1C` has an MIC of 55.2 µg/mL. With `CC(=O)O[C@H]1[C@H]2c3cc4c(cc3CN3CCC(=C[C@@H]1OC(C)=O)[C@H]23)OCO4` the MIC was 37 µg/mL. Compound `CC(=O)O[C@H]1C=C2CCN3Cc4cc5c(cc4[C@H]([C@@H]1O)[C@@H]23)OCO5` has an MIC of 3.3 µg/mL. `O=C1C=C2CCN3Cc4cc5c(cc4[C@H]([C@@H]1O)[C@@H]23)OCO5` gave an MIC of over 26 µg/mL. Compound `CC(=O)O[C@H]1[C@H]2c3cc4c(cc3CN3CC[C@H](C[C@@H]1OC(C)=O)[C@H]23)OCO4` has an MIC of over 37 µg/mL.

What follows are compounds tested on Staphylococcus aureus (assay: Antibacterial activity against Staphylococcus aureus). Details: not given.
Assay type: functional
With `CC(=O)O[C@H]1[C@H]2c3cc4c(cc3CN3CCC(=C[C@@H]1O)[C@H]23)OCO4` the MIC was over 33 µg/mL. In the case of `CC(=O)O[C@H]1[C@H]2c3cc4c(cc3CN3CCC(=C[C@@H]1OC(C)=O)[C@H]23)OCO4`, the MIC is reported as over 37 µg/mL. Work on `O=C1C=C2CCN3Cc4cc5c(cc4[C@H]([C@@H]1O)[C@@H]23)OCO5` yielded an MIC of over 26 µg/mL. In the case of `CC(=O)O[C@H]1[C@H]2c3cc4c(cc3CN3CC[C@H](C[C@@H]1OC(C)=O)[C@H]23)OCO4`, the MIC is reported as over 37 µg/mL.
